Source: patent publication US20190030053A1, “COMPOSITION FOR INCREASING EXPRESSION OF PGC-1alpha” (BENEBIOSIS CO., LTD., priority 2016, published 2019)

Assays:
PGC-1α and related genes = experiment: Abdominal fat gene expression in high-fat diet ob mouse models; assay type: in vivo; details: ob mice, oral 0.1 mg/kg/day, 10 weeks
Method: In order to investigate gene expression changes and topical fat removal effects by treatment with SL (3′-SL & 6′-SL) composition in mouse models, 4-week-old male ob mouse (C57BL/6J-ob/ob) models were purchased from Central Lab Animal (Korea). Water was freely accessible, and a high-fat diet (Rodent Diet with 60 kcal % fat) was supplied for two weeks. […]
Sialyllactose or DW was orally administered daily. […] The dietary intake and body weight change were measured every 5 days. […]
Gene expression changes by the treatment with SL (3′-SL & 6′-SL) compositions were quantitatively compared in the abdominal part. RNA was extracted by TRIzol agent (Invitrogen). cDNA was synthesized by using RNA, which has been extracted as above and quantified, and a reverse transcription system (Promega, USA). The expression patterns of PGC-1α and related genes were measured by using pre-designed primers and probes (Applied Biosystems; PGC-1α, Mm00447181_m1, GAPDH, and Mm99999915_q1) for the synthesized cDNA and analysis targets (Fndc5, PGC-1α, Erra, UCP1, SOD2, and GPX1). […]

[1] = system: mouse aortic smooth muscle cells (MASMs); experiment: Intracellular H2O2 (ROS values, H2DCFDA) in MASMs of aging stimulation model mice; assay type: cell-based; details: MASMs from aging stimulation model mice; SL added to culture liquid
Method: In addition, for cell-level tests, mouse aortic smooth muscle cells (MASMs) were isolated from the control group fed with a high-fat diet (Rodent Diet with 60 kcal % fat) without SL administration (Griendling et al., 1991), and the SL (3′-SL & 6′-SL) compositions were added to the culture liquid, followed by incubation. For intracellular H2O2 measurement (ROS values), the cells were cultured in 12-well culture plates immersed in 0.1% bovin calf serum. The intracellular ROS values were measured using H2DCFDA. For assay, the cells were cultured together with H2DCFDA in HBSS buffer for 30 minutes. The cells were trypsinized, washed, and lysed in HBSS. The fluorescence values were measured immediately by a CytoFluor plate reader (FIG. 17a).
In FIGS. 17a and 17b, MASMs were extracted from the aging stimulation model mouse control group, and the SL (3′-SL & 6′-SL) compositions were added to the culture liquid to conduct comparison.
FIGS. 17a and 17b show the measurement results of intercellular H2O2 (ROS values) (FIG. 17a) and the measurement results of mitochondrial superoxide production (FIG. 17b).

telomerase = experiment: Telomerase activity (TRAP) in vitro, MASMs of aging stimulation models; assay type: cell-based, mouse; details: MASMs of aging stimulation model control group, cultured 1 day with SL
Method: In FIGS. 18a and 18b, the telomerase activity was measured using TRAP protocol (Wright et al., 1995). In summary, cell pellets were lysed in CHAPS lysis solvent (containing ribnuclease inhibitor), followed by incubation at 4° C. for 30 minutes. Cell extracts ([…]) were TRAPeze reaction mix (telomerase substrate (TS) primer, fluorescent-labeled RP (reverse) primer, control standard template, and sulforhodamine-labeled standard K2 primer). The TS primer was elongated at 30° C. for 30 minutes, and then PCR was performed. The fluorescence of the thus obtained TRAP product was measured using a fluorescent plate reader to quantify telomerase activity. Relative telomerase activity was normalized by the ratio of native […] to sulforhodamine (internal control standard), expressed as a percentage. Fluorescein (M0250) was purchased from Marker Gene Technologies, Inc. H2-dichlorofluorescin diacetate (DCFDA) was purchased from Molecular Probes. MitoSOX™ Red, MitoTracker Green FM, and MitoTracker® Orange CMTMRos (MTO) were purchased from Invitrogen. 10,000× SYBR® Gold dye was purchased from Molecular Probes, Inc. Nuclear/Cytosol fractionation kit (K266-100) was purchased from BioVision. TRAPeze® XL telomerase detection kit (S7707) was purchased from MILLIPORE. Telomere PNA FISH Kit/Cy3 (K5326) was purchased from Dako. […]

[2] = system: ob mouse (C57BL/6J-ob/ob) models; experiment: Topical fat removal by meso roller administration in ob mouse models; assay type: in vivo; details: 0.1 M SL, meso roller on day 0 and day 4, observed on day 7
Method: In addition, in the ob mouse (C57BL/6J-ob/ob) models fed with a high-fat diet without SL treatment, the topical fat removal effect by SL (3′-SL & 6′-SL) administration using a meso roller (0.5 mm, INTO MR, Intomedi Inc.) was investigated. Specifically, the hairs on the dorsal side of the […] were shaved, and 0.1 M SL in the saline buffer was applied to the skin, and was absorbed into the skin by rubbing with the meso roller. The control group was tested by the same method except that the buffer was used without SL. […] In FIG. 15, 3′-SL, 6′-SL, and CTL represent the 3′-SL administration group, the 6′-SL administration group, and the control group, respectively. After feeding with a high-fat diet for 10 weeks, SL (3′-SL & 6′-SL) compositions were topically administered on day 0 and day 4 using the meso roller, and then dermoscopy observation was conducted on day 7. The observation results are shown.

Row | SMILES | expression levels of analysis targets (Fndc5, PGC-1α, Erra, UCP1, SOD2, GPX1) in abdominal fat vs negative control (PGC-1α and related genes) | intracellular H2O2 (ROS values) [1] | telomerase activity in MASMs (in vitro) (telomerase) | topical fat removal (dermoscopy) vs negative control portion [2]
1 | CC(=O)N[C@H]1[C@H]([C@H](O)[C@H](O)CO)O[C@@](O[C@H]2[C@@H](O)[C@@H](CO)O[C@@H](O[C@H]3[C@H](O)[C@@H](O)C(O)O[C@@H]3CO)[C@@H]2O)(C(=O)O)C[C@@H]1O (stereo partly drawn) [3′-SL, α-NeuNAc-(2→3)-β-D-Gal-(1→4)-D-Glc] | relatively low compared with 6′-SL | dropped the ROS values | increased telomerase activity | relatively low compared with 6′-SL
2 | CC(=O)N[C@H]1[C@H]([C@H](O)[C@H](O)CO)O[C@@](OC[C@H]2O[C@@H](O[C@H]3[C@H](O)[C@@H](O)[C@H](O)O[C@@H]3CO)[C@H](O)[C@@H](O)[C@H]2O)(C(=O)O)C[C@@H]1O [6′-SL, α-NeuNAc-(2→6)-β-D-Gal-(1→4)-D-Glc] | about two-time significant increases | dropped the ROS values | increased telomerase activity | topical fat was removed
